# Earlier results in patent publication US12516015B2 (AMALIVE LIMITED, priority 2009, dated 2026).
smiles,measurement,value
O=C(O)Cc1ccccc1 [phenyl acetic acid],pKa,~4.28
